Experimental data taken from patent publication US20250230226A1, “PLXDC1/PLXDC2 ACTIVATORS AND THEIR USE IN THE TREATMENT OF BLOOD VESSEL DISORDERS” (THE REGENTS OF THE UNIVERSITY OF CALIFORNIA, priority 2019, published 2025).

Assays:
[1] = test system: CT26.CL25 colon cancer tumor endothelial cells; assay: Colon CT26 ex vivo model of tumor angiogenesis; type: cell-based, mouse; details: for 48 hrs (morphology observations after 48 hours): Conc. 40 μm; for cytotoxicity at 40 µM: Mus musculus, Endothelial cell, 48 h, read-out: Cell death
Experimental: An ex vivo tumor angiogenesis model was developed to test the efficacy of anti-cancer candidate agents. The following protocol describes the Ex Vivo Tumor Angiogenesis Model.
• 1. The day before the experiment, all necessary tools were sprayed with 70% ethanol and sterilized under UV light overnight, including blade, dissecting and micro-dissecting scissors and […]. 24-well dishes were placed at 4° C. to pre-chill plates and Matrigel was thawed, 24 hours before tumor dissection. • 2. 70% ethanol was sprayed on working bench. Two sterile petri dishes were prepared with 10 ml sterile PBS. The following steps 3 and 4 are necessary for mouse tumor models. For fresh human tumor, steps 3 and 4 are skipped. • 3. The tumor-bearing mice were euthanized. 70% ethanol was sprayed on the mouse and the tumor was removed using sterilized dissecting tools (avoid the fur). The tumor was rinsed in petri dish with sterile PBS to remove ethanol and fur. The tumor was transferred to a new petri dish with PBS for dissection. The dish is placed on ice. • 4. Pre-chilled sterile pipet tips were used to seed regular Matrigel in 24 well plates on ice. Matrigel (30 μl) was dropped in the middle of each well without touching the edge of the well (avoid introducing bubbles if possible). • 5. The tumor was cut in halves using the sterile blade. Healthy tumor tissue that is not necrotic and is within the tumor capsule was identified and isolated. The healthy tumor tissue was cut into small pieces. For instance, a suitable size for the tumor tissue is 0.5 mm (H)×0.5 mm (L)×0.3 mm (D) with a total volume of 0.075 mm^3. • 6. Each tumor piece was gently transferred and embedded in the Matrigel drop in the 24-well plate. The embedded piece was placed in the bottom and middle of each Matrigel drop. The plate was kept on ice all the time. • 7. After seeding the tumor pieces, plates were incubated in a 37° C. cell culture incubator without medium for 10 minutes in order for the Matrigel to solidify. • 8. Endothelial Growth Medium (0.5 ml) was added to each well and incubated at 37° C. with 5% CO2. Treatment was not added until the new endothelial cells was grown out of the tumor or were larger than 3 mm in diameter. This usually takes 4 days for the LL2 Lewis lung cancer model and 7 days for the CT26 colon cancer model. For human tumor models, the growth time is typically 2-3 weeks, depending on the tumor type. Media was changed every 4 days during prolonged culture. Typically, when the tumor tissue grows to 2 mm in diameter, it was good for drug testing. A size of about 3 mm in diameter can make visualization easier. • 9. When the assay was ready to be analyzed for cell death (e.g., 48 hours after drug addition), the dye mixture was prepared by mixing 6 μl of green dye to stain live cells (5 mg/ml Fluorescein diacetate or FDA in DMSO) with 30 μl of red dye (2.5 mg/ml Propidium iodide or PI in PBS) to stain dead cells in an Eppendorf tube. The FDA dye needs to be stored frozen in a −20° C. freezer because it has a labile ester bond. • 10. 1 μl of the dye mixture was added to each well of the 24-well dish. It is usually preferred to do one 24-well dish at a time given the amount of time needed to take pictures (the green dye is not as stable in the cells in the long term). • 11. The dish was gently rocked a few times to mix the dye with the media in the wells and incubate the dish at 37° C. for 10 min (too long incubation can make the green signal too intense). • 12. Each well was washed with 0.5 ml of sterile PBS and then 0.5 ml of phenol red free SFM was added to each well. Alternatively 0.5 ml of regular Endothelial Cell Growth Media can be added to each well if this well needs to be continuously maintained after the experiment. • 13. An inverted microscope using the 2× objective lens was used to observe morphological changes in the experimental wells. • 14. […]

[2] = test system: LL/2 lung cancer tumor endothelial cells; assay: Lung LL2 ex vivo model of tumor angiogenesis; type: cell-based, mouse; details: for 48 hrs (morphology observations) / Cell death: 40 μm; for 48 hrs (morphology observations): LL/2 tumor endothelial cells; for Cell death: drug treatment for two days, ratio of red area to total endothelial cell area; for cytotoxicity at 40 µM: Mus musculus, Endothelial cell, 48 h, read-out: Cell death
In short: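 LL2 mouse tumor fragments (~0.075 mm³) embedded in Matrigel and cultured in endothelial growth medium at 37 °C until endothelial outgrowth (~4 days) before treatment. Cell death assessed e.g. 48 h after drug by fluorescein diacetate (live)/propidium iodide (dead) staining and red/green fluorescence imaging.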

Row | SMILES | 48 hrs (morphology observations after 48 hours) [1] | cytotoxicity at 40 µM [1] | 48 hrs (morphology observations) [2] | Cell death [2] | cytotoxicity at 40 µM [2]
1 | CCCCOc1ccc(S(=O)(=O)c2cnc3ccc([S+](C)[O-])cc3c2N2CCCN(C)CC2)cc1 (centres unmarked) [Compound 163] | **** (100% of endothelial cells vesicularize in cell shape and look flattened in morphology (indicating disintegration of the cell body)) | 100% | **** (100% of endothelial cells vesicularize in cell shape and look flattened in morphology (indicating disintegration of the cell body)) | 95% | 
2 | CCc1ccc(S(=O)(=O)c2cnc3ccc(OC(F)(F)F)cc3c2NN2CCN(C)CC2)cc1 [Compound 50] | *** (100% of endothelial cells vesicularize in cell shape) | 100% | *** (more than 50% but less than 100% of endothelial cells vesicularize in cell shape) | 90% | 
3 | CCOC(=O)c1ccc2ncc(S(=O)(=O)c3ccc(CC)cc3)c(N3CCC(O)CC3)c2c1 [Compound 62] | ** (more than 50% but less than 100% of endothelial cells vesicularize in cell shape) | 70% | *** (more than 50% but less than 100% of endothelial cells vesicularize in cell shape) | 30% | 
4 | COc1ccc(S(=O)(=O)c2cnc3ccc(OC(F)(F)F)cc3c2N(CCO)CCO)cc1OC [Compound 72] | 0 | 0% |  | 20% | 
5 | CCOC(=O)c1ccc2ncc(S(=O)(=O)c3ccc(CC)cc3)c(N3CCC(N4CCCCC4)CC3)c2c1 [Compound 64] | *** (100% of endothelial cells vesicularize in cell shape) | 100% | *** (more than 50% but less than 100% of endothelial cells vesicularize in cell shape) |  | 100%
6 | COc1ccc(S(=O)(=O)c2cnc3ccc(OC(F)(F)F)cc3c2N2CCC(O)CC2)cc1OC [Compound 58] | * (50% or less of cells vesicularize in cell shape) | 50% | 0 |  | 50%
7 | CCCCCCCOc1ccc(S(=O)(=O)c2cnc3ccc(SC)cc3c2N2CCCN(C)CC2)cc1 [Compound 218] | *** (100% of endothelial cells vesicularize in cell shape) | 90% | **** (100% of endothelial cells vesicularize in cell shape and look flattened in morphology (indicating disintegration of the cell body)) | 100% | 
8 | CCN(CC)CCNC(=O)c1ccc2ncc(S(=O)(=O)c3ccc(OC)cc3)c(N3CCCN(C)CC3)c2c1 [Compound 166] | *** (100% of endothelial cells vesicularize in cell shape) | 60% | 0 | 10% | 
9 | CCc1ccc(S(=O)(=O)c2cnc3ccc([N+](=O)[O-])cc3c2N(CC)CC)cc1 [Compound 78] | 0 | 0% |  | 40% | 
10 | CCOC(=O)c1ccc2ncc(S(=O)(=O)c3ccc(OC)cc3)c(N3CCC(N4CCC(O)CC4)CC3)c2c1 [Compound 138] | 0 | 20% |  |  | 
11 | CCOC(=O)c1ccc2ncc(S(=O)(=O)c3ccc(CC)cc3)c(N3CCCC(O)C3)c2c1 (centres unmarked) [Compound 135] | 0 | 30% |  |  | 
12 | CCOC(=O)c1ccc2ncc(S(=O)(=O)c3ccc(CC)cc3)c(N3CCCN(CCN(CC)CC)CC3)c2c1 [Compound 131] | ** (more than 50% but less than 100% of endothelial cells vesicularize in cell shape) | 50% |  |  | 
13 | CCOC(=O)c1ccc2ncc(S(=O)(=O)c3ccc(OC)cc3)c(N3CCCN(CCN(CC)CC)CC3)c2c1 [Compound 139] | 0 | 40% |  |  | 
14 | CCCCOc1ccc2ncc(S(=O)(=O)c3ccc(OC)c(OC)c3)c(N(CC)CC)c2c1 [Compound 123] | 0 | 20% |  |  | 
15 | CCOC(=O)c1ccc2ncc(S(=O)(=O)c3ccc(CC)cc3)c(N3CCC(N4CCC(O)CC4)CC3)c2c1 [Compound 130] | 0 | 40% |  |  | 
16 | CN1CCCN(c2c(S(=O)(=O)c3ccc([N+](=O)[O-])cc3)cnc3ccc(OC(F)(F)F)cc23)CC1 [Compound 60] | 0 | 5% |  |  | 
17 | CCc1ccc(S(=O)(=O)c2cnc3ccc(OC(F)(F)F)cc3c2N2CCC(O)(c3ccc(OC)cc3)CC2)cc1 [Compound 145] | 0 | 30% |  |  | 
18 | CCc1ccc(C2(O)CCN(c3c(S(=O)(=O)c4ccc(OC)cc4)cnc4ccc(OC(F)(F)F)cc34)CC2)cc1 [Compound 129] | 0 | 0% |  |  | 
19 | CCOC(=O)c1ccc2ncc(S(=O)(=O)c3ccc(OC)cc3)c(N3CCC(N4CCCCC4)CC3)c2c1 [Compound 136] | 0 | 30% |  |  | 
20 | CCOC(=O)c1ccc2ncc(S(=O)(=O)c3ccc(OC)cc3)c(N3CCC(OCCN(CC)CC)CC3)c2c1 [Compound 140] | ** (more than 50% but less than 100% of endothelial cells vesicularize in cell shape) | 60% |  |  | 
21 | CCOC(=O)c1ccc2ncc(S(=O)(=O)c3ccc(OC)cc3)c(N3CCCN(C)CC3)c2c1 [Compound 144] | 0 | 30% |  |  | 
22 | CCOC(=O)c1ccc2ncc(S(=O)(=O)c3ccc(OC)cc3)c(N3CCCC(O)C3)c2c1 (centres unmarked) [Compound 137] | 0 | 40% |  |  | 
23 | COc1ccc(S(=O)(=O)c2cnc3ccc(OC(F)(F)F)cc3c2N2CCC(O)(c3cccc(OC)c3)CC2)cc1 [Compound 146] | 0 | 0% |  |  | 
24 | CCCCOc1ccc(S(=O)(=O)c2cnc3ccc(SC)cc3c2N2CCCN(CCN3CCCC3)CC2)cc1 [Compound 207] | **** (100% of endothelial cells vesicularize in cell shape and look flattened in morphology (indicating disintegration of the cell body)) | 100% |  |  | 
25 | CCc1ccc(S(=O)(=O)c2cnc3ccc(OC(F)(F)F)cc3c2N2CCC(O)(c3cccc(OC)c3)CC2)cc1 [Compound 150] | 0 | 10% |  |  | 
26 | CCOC(=O)c1ccc2ncc(S(=O)(=O)c3ccc(CC)cc3)c(N3CCC(O)(c4ccc(OC)cc4)CC3)c2c1 [Compound 148] | 0 | 0% |  |  | 
27 | CCOC(=O)c1ccc2ncc(S(=O)(=O)c3ccc(CC)cc3)c(N3CCC(OCCN(CC)CC)CC3)c2c1 [Compound 132] | * (50% or less of cells vesicularize in cell shape) | 40% |  |  | 
28 | CCc1ccc(S(=O)(=O)c2cnc3ccc(OC(F)(F)F)cc3c2N2CCC(O)(c3ccc4c(c3)OCO4)CC2)cc1 [Compound 147] | 0 | 0% |  |  | 
29 | COc1ccc(S(=O)(=O)c2cnc3ccc(SC)cc3c2N2CCC(N3CCC(O)CC3)CC2)cc1OC [Compound 153] | * (50% or less of cells vesicularize in cell shape) | 20% |  |  | 
